# Measured values as given in PubChem BioAssay (NCI).
#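 Compound exposure: 48 hours, 5 concentrations, 96-well plates. Here, GI50 denotes the concentration required for 50% inhibition of growth. TGI: total growth inhibition.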
# Key:
# Assay in all cases: NCI anticancer screen, dose series, 48 h
# HCT-116 colon = system: HCT-116 colon
# HCT-15 colon = system: HCT-15 colon
# HL-60(TB) leukemia = system: HL-60(TB) leukemia
# IGROV1 ovarian = system: IGROV1 ovarian
# LOX IMVI melanoma = system: LOX IMVI melanoma
# MALME-3M melanoma = system: MALME-3M melanoma
# OVCAR-5 ovarian = system: OVCAR-5 ovarian
# SF-295 CNS = system: SF-295 CNS
# SK-MEL-2 melanoma = system: SK-MEL-2 melanoma
# SNB-19 CNS = system: SNB-19 CNS
# UACC-257 melanoma = system: UACC-257 melanoma
# OVCAR-4 ovarian = system: OVCAR-4 ovarian
SMILES,TGI (HCT-116 colon) [µM],TGI (HCT-15 colon) [µM],TGI (HL-60(TB) leukemia) [µM],TGI (IGROV1 ovarian) [µM],TGI (LOX IMVI melanoma) [µM],TGI (MALME-3M melanoma) [µM],TGI (OVCAR-5 ovarian) [µM],TGI (SF-295 CNS) [µM],TGI (SK-MEL-2 melanoma) [µM],TGI (SNB-19 CNS) [µM],TGI (UACC-257 melanoma) [µM],GI50 (HCT-15 colon) [µM],GI50 (HL-60(TB) leukemia) [µM],GI50 (OVCAR-5 ovarian) [µM],GI50 (SK-MEL-2 melanoma) [µM],GI50 (UACC-257 melanoma) [µM],TGI (OVCAR-4 ovarian) [µM]
CC1C2(C)OC(=N)C(C#N)(C(c3ccco3)O2)C1(C#N)C#N (configuration not stated),67.1,25,48.3,> 100,40.5,88.7,83.6,> 100,75.9,> 100,51.9,,,,,,
O=C(N1CCC(CN=c2cc3n(-c4ccc(Cl)cc4)c4ccccc4nc-3cc2Nc2ccc(Cl)cc2)CC1)N1CC1,,1.87,3.64,,,,3.39,,2.04,,1.89,0.512,1.5,1.85,0.632,0.605,
C[C@@H]1OC(=O)C[C@H]2CC(=O)N(CCC3CN(S(=O)(=O)C(F)(F)F)c4ccc(Cc5ccc6c(c5)C(CCN5C[C@H]7[C@@H](CC(=O)O[C@H]7C)CC5=O)CN6S(=O)(=O)C(F)(F)F)cc43)C[C@@H]21 (some centres not stated),> 100,> 100,,,> 100,> 100,> 100,> 100,> 100,> 100,> 100,,,,,,> 100
NC(CCCNc1cccc(O)c1)C(=O)O (configuration not stated),> 100,> 100,> 100,,> 100,> 100,> 100,> 100,> 100,> 100,> 100,,,,,,> 100
CC(C)c1ccc2c(c1)C=C1OC(=O)[C@]3(C)CCC[C@@]2(C)C13 (some centres not stated),> 100,> 100,> 100,> 100,,,,> 100,,> 100,> 100,,,,,,> 100
NC(N)=NS(=O)(=O)c1ccc(Nc2c3ccccc3nc3c(C(=O)NC(CO)(CO)CO)cccc23)cc1,,> 100,71.4,> 100,> 100,45.3,65.4,> 100,50.8,> 100,> 100,,,,,,
CC(=O)N1C(C(=O)NNc2ccccc2)CSC1c1ccccc1 (configuration not stated),> 100,> 100,,> 100,> 100,> 100,> 100,> 100,> 100,> 100,> 100,,,,,,> 100
O=c1c2ccccc2c2c1c1c3ccccc3c(=O)c1c1c3ccccc3c(=O)c21,> 100,> 100,> 100,> 100,> 100,> 100,> 100,> 100,> 100,> 100,> 100,,,,,,
O/N=C1/CCCCCC1NO (configuration not stated),> 100,> 100,,> 100,> 100,> 100,> 100,> 100,> 100,> 100,> 100,,,,,,> 100
O=C(N/N=C/C=C/c1ccc([N+](=O)[O-])o1)c1ccc(Br)s1,13.3,35.7,87.2,16.4,60.7,37.9,59.7,> 100,56.3,78.9,,,,,,,40.2
COc1cc(S(=O)(=O)Nc2ccc(-c3csc(N4C(=O)C(C)SC4c4ccccc4O)n3)cc2)ccc1Cl (configuration not stated),> 100,> 100,56.4,> 100,> 100,35.5,> 100,> 100,91.7,> 100,,,,,,,
COc1ccc(C(=O)/C=C/c2ccc(OCC(=O)O)cc2)cc1,> 100,> 100,> 100,> 100,> 100,> 100,> 100,> 100,> 100,> 100,,,,,,,
C=CCOC(=O)CCCCCCCCCCCCCCCOC(=O)c1c(CCC[C@@H](C)O[Si](C)(C)C(C)(C)C)nc(=O)n2c1CC[C@H]2CC1(CC/C=C\[C@H](CC)O[Si](C(C)C)(C(C)C)C(C)C)OCCO1,> 100,> 100,,,,> 100,> 100,> 100,> 100,> 100,> 100,,,,,,> 100
CC(=O)[O-].CC(=O)[O-].O=C(N/N=C/c1cc(Cl)cc(Cl)c1[OH2+])c1ccncc1.[Zn+2],> 100,> 100,> 100,> 100,> 100,> 100,> 100,> 100,,> 100,> 100,,,,,,
Cn1c(=O)c2c(ncn2CCSS(=O)(=O)O)n(C)c1=O,> 100,> 100,,> 100,,> 100,> 100,> 100,> 100,> 100,> 100,,,,,,> 100
CCCC(=O)/C=C/S/C=C/C(=O)CCC,,8.22,,47.9,6.27,25.4,9.69,66.3,> 100,72.3,,,,,,,43.2
O=C1c2ccccc2C(=O)C2C3c4ccccc4C(c4ccccc43)C12 (configuration not stated),> 100,> 100,,78.3,28.9,38.8,,31.5,,> 100,> 100,,,,,,
OCCCCn1cc(Cn2ncc3c(SCc4ccccc4)ncnc32)nn1,> 100,> 100,,> 100,> 100,> 100,> 100,> 100,> 100,> 100,> 100,,,,,,> 100
O=C(Nc1ccccc1)Nn1c(-c2cccs2)nc2ccc(I)cc2c1=O,> 100,> 100,21.8,71.7,49.1,,> 100,98.5,,> 100,65.9,,,,,,90.4
CC(C)CCNC(=O)c1ccc(CNC(=O)/C=C/c2csc(-c3ccccc3)n2)cc1,> 100,> 100,,> 100,> 100,> 100,> 100,> 100,> 100,56.6,> 100,,,,,,> 100
